For one assay, the system named is AKT. As to the kind of experiment: AKT activation by western blot (phospho-AKT). The note with it: REGN1400 5 μg/ml, REGN955 10 μg/ml, AZD4547 25 nM. It is filed as cell-based, human. As for the experimental part: (§1) For analysis of cell signaling by western blot, tumor cells were treated with the following reagents: ErbB3 blocking REGN1400, EGFR blocking antibody REGN955, MEK inhibitor GSK1120212 (Selleckchem), FGFR TKI AZD4547 (Selleckchem), MET TKI PHA665752 (Sigma), PI3K inhibitor BYL719, human NRG1 (R&D Systems), human EGF (R&D Systems). Following treatment, cell lysates were subjected to western blot with the following antibodies: phospho-ErbB3 (Cell Signaling Technology (CST), cat. #4561), EGFR (CST, cat. #2646), phospho-EGFR (CST, cat. #2234), Akt (CST, cat. #9272), phospho-Akt (CST, cat. #4060), ERK (CST, cat. #4695), phospho-ERK (CST, cat. #4370), MET (CST, cat. #8198), phospho-MET (CST, cat. #3077), ErbB3 (CST, cad.#4754), phospho-FGFR (CST, cat. #3476).
Background: Immunoblotting shows a protein as a band on a membrane.

The subject of the next assay is FGFR3. In words: FGFR3 phosphorylation by anti-phosphotyrosine immunoprecipitation and western blot. It counts as cell-based, human. Particulars: FaDu V2 cells; 25 nM AZD4547; 1 hour. As for the experimental part: FIGS. 4A-4F provide evidence that FGFR3 is activated in FaDu resistant variant cell lines and maintains ERK signaling upon EGFR blockade. […] Active RTKs of note are boxed and labeled. The unlabeled spots on the corners of the membranes are positive controls. […] The presence of FGFR3 and Src in the immunoprecipitates was assessed by western blot. […] Following treatment, cell lysates were subjected to western blot with antibodies against phospho-ERK, ERK, phospho-MET and MET. […] Following treatment, cell lysates were subjected to immunoprecipitation with anti-phosphotyrosine antibody 4G10 conjugated to agarose beads. The presence of FGFR3 and Src in the immunoprecipitates was assessed by western blot. […] Following treatment, cell lysates were subjected to western blot with antibodies against phospho-ERK, ERK, phospho-AKT and AKT.
To assess the tyrosine phosphorylation status of FGFR3-TACC3 fusion proteins in FaDu V1 and V2 cell lines, cells growing in 10 cm dishes were lysed in 1 ml of buffer (150 mM NaCl/20 mM Tris, pH 7.5/1% Triton X-100) containing Halt Protease and Phosphatase Inhibitor Cocktail (Thermo Scientific). […]

In another assay the test system is ERK. In words: ERK activation by western blot (phospho-ERK). It is filed as cell-based, human. Particulars: REGN1400 5 μg/ml, REGN955 10 μg/ml, AZD4547 25 nM. The method, then: as §1
The next assay relates to NCI-H1975 cells. As to the kind of experiment: Tumor cell growth assay (MTS), NCI-H1975 cells expressing FGFR3-TACC3 fusion proteins. It is filed as cell-based, human. The note with it: 72 hours, 50 nM AZD9291. The method, then:
(§2) The bar graphs show the relative cell growth in each treatment group, as determined by MTS assay. Error bars show the standard deviation, n=8. […] The bar graphs show the relative cell growth in each treatment group, as determined by MTS assay. Error bars show the SD, n=8. FIGS. 11C-11D respectively show SNU1076 or Detroit 562 cells expressing wild-type FGFR3 or FGFR3-TACC3 fusion proteins that were grown for 72 hours in the presence of vehicle or 5 μM PI3K inhibitor BYL719. The bar graphs show the relative cell growth in each treatment group, as determined by MTS assay. Error bars show the standard deviation, n=8. […] Cell lysates were prepared and subjected to western blot with antibodies against phospho-ERK, ERK, phospho-AKT, or AKT.
(§3) To assess tumor cell growth, 2-3,000 cells were plated in 96-well plates (n=8 replicate wells per treatment group) in serum-containing medium. The day after plating, the baseline (0 hour) cell number was determined by MTS assay using the CellTiter96 Aqueous One Solution Cell Proliferation Assay (Promega). […] At 72 hours, the final cell number was determined by MTS assay. The relative cell growth for each treatment group was determined by subtracting the baseline MTS reading from the final MTS reading. […]

The next assay concerns Detroit 562 cells. In words: Tumor cell growth assay (MTS), Detroit 562 cells expressing FGFR3-TACC3 fusion proteins. It is filed as cell-based, human. The note with it: 72 hours, 5 μM BYL719. The method, then: as §2, §3
For a further assay, the system named is SNU1076 cells. In words: Tumor cell growth assay (MTS), SNU1076 cells expressing FGFR3-TACC3 fusion proteins. It is filed as cell-based, human. The note with it: 72 hours, 5 μM BYL719. The method, then: as §2, §3
A further assay has as its target T1, MET (Homo sapiens, UniProt P08581).
T1 construct: Fadu V2 cells that were treated for 30 minutes with control antibody; endogenous in cells
In words: MET phosphorylation by western blot. Particulars: FaDu V2 cells; 100 nM PHA665752; 30 minutes. It counts as cell-based.

Setting [1] is: FaDu V2 cells, GSK1120212 100 nM, PHA665752 100 nM.

T1 sequence (P08581 25-1390): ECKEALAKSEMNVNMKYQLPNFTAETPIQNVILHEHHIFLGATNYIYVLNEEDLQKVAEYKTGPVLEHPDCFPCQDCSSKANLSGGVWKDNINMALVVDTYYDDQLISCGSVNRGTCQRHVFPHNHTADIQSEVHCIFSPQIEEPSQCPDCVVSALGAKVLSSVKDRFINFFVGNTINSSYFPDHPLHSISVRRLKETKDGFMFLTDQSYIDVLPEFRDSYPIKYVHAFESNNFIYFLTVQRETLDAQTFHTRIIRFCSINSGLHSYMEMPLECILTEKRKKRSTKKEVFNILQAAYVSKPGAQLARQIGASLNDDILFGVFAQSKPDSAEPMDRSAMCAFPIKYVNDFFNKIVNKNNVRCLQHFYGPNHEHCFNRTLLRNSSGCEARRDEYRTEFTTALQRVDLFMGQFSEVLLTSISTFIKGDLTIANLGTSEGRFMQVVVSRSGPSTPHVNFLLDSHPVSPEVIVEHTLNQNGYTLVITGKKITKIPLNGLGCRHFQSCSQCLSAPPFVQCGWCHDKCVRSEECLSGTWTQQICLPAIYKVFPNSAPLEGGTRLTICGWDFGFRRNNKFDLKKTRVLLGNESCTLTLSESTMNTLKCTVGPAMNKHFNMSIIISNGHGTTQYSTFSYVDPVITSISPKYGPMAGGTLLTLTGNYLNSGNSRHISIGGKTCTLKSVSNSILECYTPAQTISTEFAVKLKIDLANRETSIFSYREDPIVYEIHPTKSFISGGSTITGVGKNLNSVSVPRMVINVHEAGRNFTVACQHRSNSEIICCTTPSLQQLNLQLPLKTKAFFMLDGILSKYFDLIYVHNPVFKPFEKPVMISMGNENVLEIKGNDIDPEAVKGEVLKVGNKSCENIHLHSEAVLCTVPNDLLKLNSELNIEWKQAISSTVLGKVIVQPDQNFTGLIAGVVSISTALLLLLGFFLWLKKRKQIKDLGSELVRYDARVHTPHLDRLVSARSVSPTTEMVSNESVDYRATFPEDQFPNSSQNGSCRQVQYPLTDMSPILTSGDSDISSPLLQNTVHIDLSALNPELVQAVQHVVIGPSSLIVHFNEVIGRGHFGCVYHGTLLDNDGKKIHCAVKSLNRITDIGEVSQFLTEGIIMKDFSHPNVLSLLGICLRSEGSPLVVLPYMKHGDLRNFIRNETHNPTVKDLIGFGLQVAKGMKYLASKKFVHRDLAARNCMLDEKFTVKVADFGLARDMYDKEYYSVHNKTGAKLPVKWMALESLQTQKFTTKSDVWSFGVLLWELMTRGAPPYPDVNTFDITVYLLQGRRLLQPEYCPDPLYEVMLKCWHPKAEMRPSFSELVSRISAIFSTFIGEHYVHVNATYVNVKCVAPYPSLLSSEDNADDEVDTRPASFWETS
Excerpt for MET: Following treatment, cell lysates were subjected to western blot with antibodies against phospho-ERK, ERK, phospho-MET and MET. […] Following treatment, cell lysates were subjected to western blot with the following antibodies: phospho-ErbB3 (Cell Signaling Technology (CST), cat. #4561), EGFR (CST, cat. #2646), phospho-EGFR (CST, cat. #2234), Akt (CST, cat. #9272), phospho-Akt (CST, cat. #4060), ERK (CST, cat. #4695), phospho-ERK (CST, cat. #4370), MET (CST, cat. #8198), phospho-MET (CST, cat. #3077), ErbB3 (CST, cad.#4754), phospho-FGFR (CST, cat. #3476).

In the case of `COc1cc(CCc2cc(NC(=O)c3ccc(N4CC(C)NC(C)C4)cc3)n[nH]2)cc(OC)c1` (stereo not shown) [AZD4547], the “inhibition of AKT activation” value in the assay on AKT (FaDu V1 cells) is “no effect on AKT activation”; in the assay on AKT (FaDu V2 cells, GSK1120212 100 nM), “no effect on AKT activation”. Also, in the assay with FGFR3, the “inhibition of FGFR3 phosphorylation” value was “completely blocked FGFR3 phosphorylation”. Besides, the “inhibition of ERK activation” value in the assay with ERK (FaDu V1 cells) and with ERK (setting [1]) was “either no effect or a partial effect” each time.

Turning to `C=CC(=O)Nc1cc(Nc2nccc(-c3cn(C)c4ccccc34)n2)c(OC)cc1N(C)CCN(C)C` [AZD9291], the “growth inhibition in cells expressing FGFR3-TACC3 fusion proteins” value with NCI-H1975 cells is “promote resistance”.

Take `Cc1nc(NC(=O)N2CCC[C@H]2C(N)=O)sc1-c1ccnc(C(C)(C)C(F)(F)F)c1` [BYL719, alpelisib]: the “growth inhibition in cells expressing FGFR3-TACC3 fusion proteins” value in the assay with Detroit 562 cells and with SNU1076 cells was “neither of the FGFR3-TACC3 fusion proteins was able to confer substantial resistance” each time.

As to `Cc1[nH]c(/C=C2\C(=O)Nc3ccc(S(=O)(=O)Cc4c(Cl)cccc4Cl)cc32)c(C)c1C(=O)N1CCC[C@@H]1CN1CCCC1` [PHA665752], the “inhibition of MET phosphorylation” value against MET is given as “completely blocking MET phosphorylation”. Also, the “inhibition of ERK activation” value with ERK (setting [1]) is recorded as “did not inhibit ERK activation”.

(Values after patent US20180362654A1, “Methods for Reducing or Preventing Growth of Tumors Resistant to EGFR and/or ErbB3 Blockade” (Regeneron Pharmaceuticals, Inc., priority 2015, published 2018).)
